This note sets out measurements from ChEMBL document CHEMBL2429790, “Identification of 2-amino-5-aryl-pyrazines as inhibitors of human lactate dehydrogenase” (Bioorg Med Chem Lett, 2013).

Values after ≈ are worked out from the molar mass of the structure shown.

Series [1] concerns the target T1, L-lactate dehydrogenase A chain (Homo sapiens, UniProt P00338). The experiment in a line: Binding affinity to human recombinant carboxy-terminal his-tagged LDHA (1 to 331) expressed in Escherichia coli by surface plasmon resonance analysis in presence of NADH. For orientation: In SPR one partner is held on a chip, and binding of the other changes the refractive index at the surface.

Series [2] addresses T1, L-lactate dehydrogenase A chain. Nature of the series: Inhibition of human recombinant carboxy-terminal his-tagged LDHA (1 to 331) expressed in Escherichia coli using pyruvate as substrate assessed as disappearance of NADH after 10 mins by fluorescence assay.
The target in series [3] is L-lactate dehydrogenase B chain (Homo sapiens, UniProt P07195).
L-lactate dehydrogenase B chain, sequence (P07195 whole entry): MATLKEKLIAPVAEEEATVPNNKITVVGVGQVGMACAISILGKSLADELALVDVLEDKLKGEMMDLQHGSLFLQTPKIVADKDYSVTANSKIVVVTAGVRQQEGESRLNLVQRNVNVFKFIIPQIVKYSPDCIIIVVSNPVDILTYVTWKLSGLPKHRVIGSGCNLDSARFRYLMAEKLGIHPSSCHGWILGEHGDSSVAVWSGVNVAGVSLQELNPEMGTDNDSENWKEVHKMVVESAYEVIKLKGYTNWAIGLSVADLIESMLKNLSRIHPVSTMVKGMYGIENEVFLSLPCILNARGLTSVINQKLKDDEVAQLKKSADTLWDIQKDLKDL
Series [4] has as its target T1, L-lactate dehydrogenase A chain. Nature of the series: Binding affinity to human recombinant carboxy-terminal his-tagged LDHA (1 to 331) expressed in Escherichia coli by surface plasmon resonance analysis in absence of NADH.
Series [5] is described as follows: Permeability across basolateral to apical side in MDCK cells. The class given is ADME, cell-based, Canis lupus familiaris. The following applies: dog, read-out: permeability.
The next series has as its target Cytochrome P450 2C9 (Homo sapiens, UniProt P11712). The experiment in a line: Inhibition of CYP2C9 (unknown origin) up to 10 uM. The class given is ADME.
Another series deals with Cytochrome P450 3A4 (Homo sapiens, UniProt P08684). Nature of the series: Inhibition of CYP3A4 (unknown origin) up to 10 uM. The format is ADME.
Cytochrome P450 3A4, sequence (P08684 whole entry): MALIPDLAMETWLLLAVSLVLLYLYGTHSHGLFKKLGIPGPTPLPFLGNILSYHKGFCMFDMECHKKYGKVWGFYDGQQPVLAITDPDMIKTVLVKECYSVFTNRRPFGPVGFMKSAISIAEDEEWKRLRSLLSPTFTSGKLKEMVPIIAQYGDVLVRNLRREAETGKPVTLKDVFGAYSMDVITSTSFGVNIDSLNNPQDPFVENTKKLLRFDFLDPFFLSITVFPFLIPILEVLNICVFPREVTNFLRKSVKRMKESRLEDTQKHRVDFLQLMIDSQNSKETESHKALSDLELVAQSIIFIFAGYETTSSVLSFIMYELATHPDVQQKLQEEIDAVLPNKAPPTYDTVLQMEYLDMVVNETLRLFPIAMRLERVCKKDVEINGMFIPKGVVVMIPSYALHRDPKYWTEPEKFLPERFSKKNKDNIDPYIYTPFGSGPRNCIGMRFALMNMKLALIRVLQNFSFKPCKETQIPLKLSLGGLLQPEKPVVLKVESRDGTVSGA
A further series has as its target Cytochrome P450 2C19 (Homo sapiens, UniProt P33261). Nature of the series: Inhibition of CYP2C19 (unknown origin) up to 10 uM. The format is ADME.
In another series the target is Cytochrome P450 2D6 (Homo sapiens, UniProt P10635). Nature of the series: Inhibition of CYP2D6 (unknown origin) up to 10 uM. The format is ADME.
Cytochrome P450 2D6, sequence (P10635 whole entry): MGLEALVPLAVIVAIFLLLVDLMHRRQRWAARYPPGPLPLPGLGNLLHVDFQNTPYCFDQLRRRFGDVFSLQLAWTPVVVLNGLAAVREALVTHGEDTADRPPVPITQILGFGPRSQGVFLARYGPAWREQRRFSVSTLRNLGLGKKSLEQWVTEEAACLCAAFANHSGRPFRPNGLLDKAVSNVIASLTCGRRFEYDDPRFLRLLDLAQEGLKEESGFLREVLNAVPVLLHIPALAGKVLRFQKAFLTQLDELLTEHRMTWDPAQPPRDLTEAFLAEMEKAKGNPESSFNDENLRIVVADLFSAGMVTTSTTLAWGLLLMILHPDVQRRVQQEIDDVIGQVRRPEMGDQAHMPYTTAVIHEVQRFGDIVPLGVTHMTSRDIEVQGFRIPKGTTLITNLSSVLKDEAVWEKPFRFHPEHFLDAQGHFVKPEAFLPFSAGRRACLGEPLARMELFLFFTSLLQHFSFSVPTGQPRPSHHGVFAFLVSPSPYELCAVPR
Series [6] can be described thus: Plasma protein binding in human at 5 uM after 4 hrs by equilibrium dialysis method. The format is ADME, cell-free. Conditions: read-out: PPB. In general terms: In equilibrium dialysis only unbound substance equilibrates across the membrane.
Series [7] is described as follows: Aqueous kinetic solubility of the compound at pH 7.4. The class given is physicochemical. The following applies: read-out: Kinetic_solubility.
A short description of series [8]: Plasma protein binding in rat at 5 uM after 4 hrs by equilibrium dialysis method. The format is ADME, cell-free. Conditions: read-out: PPB (converted).
The next series concerns the target T2, Cytochrome P450 1A2 (Homo sapiens, UniProt P05177).
T2 sequence (P05177 whole entry): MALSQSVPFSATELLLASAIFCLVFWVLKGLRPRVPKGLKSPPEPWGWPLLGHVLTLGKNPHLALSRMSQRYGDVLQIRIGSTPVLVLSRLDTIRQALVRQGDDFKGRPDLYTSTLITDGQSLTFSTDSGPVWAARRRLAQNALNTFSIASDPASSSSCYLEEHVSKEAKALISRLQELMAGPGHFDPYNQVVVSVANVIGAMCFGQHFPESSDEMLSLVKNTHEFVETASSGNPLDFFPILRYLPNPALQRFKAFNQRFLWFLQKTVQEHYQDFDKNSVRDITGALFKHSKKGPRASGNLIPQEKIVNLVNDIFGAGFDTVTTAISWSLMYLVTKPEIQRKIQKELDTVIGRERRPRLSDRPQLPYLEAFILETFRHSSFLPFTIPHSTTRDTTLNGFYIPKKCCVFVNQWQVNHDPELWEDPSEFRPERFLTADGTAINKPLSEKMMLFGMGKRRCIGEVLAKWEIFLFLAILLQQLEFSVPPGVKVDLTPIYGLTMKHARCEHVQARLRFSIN
The experiment in a line: Inhibition of CYP1A2 (unknown origin) up to 10 uM. The class given is ADME.

The nature of series [9]: Permeability across apical to basolateral side in MDCK cells. The class given is ADME, cell-based, Canis lupus familiaris. The following applies: dog, read-out: permeability.
Series [10] is described as follows: Volume of distribution in Sprague-Dawley rat at 1.5 mg/kg, po and 0.5 mg/kg, iv. The class given is ADME, organism-based. Conditions: in vivo.
A short description of series [11]: Plasma clearance in Sprague-Dawley rat at 1.5 mg/kg, po and 0.5 mg/kg, iv. The format is ADME, organism-based.
The nature of series [12]: Cmax in Sprague-Dawley rat at 0.5 mg/kg, iv. The format is ADME, organism-based. Further details: dose 0.5 mg/kg, route intravenous. Conditions: in vivo.
The nature of series [13]: Half life in Sprague-Dawley rat at 1.5 mg/kg, po and 0.5 mg/kg, iv. The format is ADME, organism-based. The following applies: in vivo.
Series [14] can be described thus: Oral bioavailability in Sprague-Dawley rat at 1.5 mg/kg. The format is ADME, organism-based. The following applies: in vivo.
Series [15] can be described thus: AUC (infinity) in Sprague-Dawley rat at 1.5 mg/kg, po. The format is ADME, organism-based. The arrangement: time infinity, dose 1.5 mg/kg, route oral. The following applies: plasma.
Series [16] can be described thus: Cytotoxicity against human MCF7-neo/Her2 cells assessed as cell viability at 50 uM by Sytox Green/Hoescht 33342 staining assay. The format is cell-based.

Cytochrome P450 2C19, sequence (P33261 whole entry): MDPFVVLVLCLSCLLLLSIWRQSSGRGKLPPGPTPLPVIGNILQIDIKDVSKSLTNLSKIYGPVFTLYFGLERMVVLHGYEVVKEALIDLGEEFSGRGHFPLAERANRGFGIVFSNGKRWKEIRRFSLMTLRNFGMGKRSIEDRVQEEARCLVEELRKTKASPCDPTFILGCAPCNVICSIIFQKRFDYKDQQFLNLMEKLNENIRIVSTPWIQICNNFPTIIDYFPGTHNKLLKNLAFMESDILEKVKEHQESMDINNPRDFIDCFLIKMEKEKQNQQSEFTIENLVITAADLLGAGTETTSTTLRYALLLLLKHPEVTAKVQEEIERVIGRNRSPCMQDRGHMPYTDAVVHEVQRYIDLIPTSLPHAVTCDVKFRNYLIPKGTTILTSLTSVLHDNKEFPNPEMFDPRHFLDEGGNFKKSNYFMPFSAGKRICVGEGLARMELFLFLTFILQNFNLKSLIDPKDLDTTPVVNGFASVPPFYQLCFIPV
Cytochrome P450 2C9, sequence (P11712 whole entry): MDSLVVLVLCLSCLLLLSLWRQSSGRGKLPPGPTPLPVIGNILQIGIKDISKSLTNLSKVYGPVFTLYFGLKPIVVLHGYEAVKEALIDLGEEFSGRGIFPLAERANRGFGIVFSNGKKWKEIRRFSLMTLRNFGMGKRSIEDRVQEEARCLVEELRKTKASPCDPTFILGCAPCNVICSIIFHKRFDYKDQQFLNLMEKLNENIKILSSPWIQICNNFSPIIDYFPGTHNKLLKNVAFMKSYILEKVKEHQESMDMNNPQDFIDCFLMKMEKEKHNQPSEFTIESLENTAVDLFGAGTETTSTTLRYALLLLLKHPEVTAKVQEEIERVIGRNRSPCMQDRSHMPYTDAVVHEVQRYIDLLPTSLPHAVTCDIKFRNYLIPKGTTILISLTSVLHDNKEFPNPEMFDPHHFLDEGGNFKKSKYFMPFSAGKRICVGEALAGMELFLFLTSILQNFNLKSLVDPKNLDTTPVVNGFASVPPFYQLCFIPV

Consider `C[C@@H](Nc1nc(-c2cccc(C(=O)O)c2)cnc1N)c1ccc(Cl)cc1`, for which, in series [1], the Kd stood at 5 µM. Besides, the IC50 in [2] is 2 µM; in series [3], 5 µM.
As to `C[C@@H](Nc1nc(-c2cccc(C(=O)NS(C)(=O)=O)c2)cnc1N)c1ccccc1`, the Kd in [1] was greater than 100 µM. Besides, the IC50 in series [2] and in series [3] was greater than 100 µM throughout.
On to `C[C@@H](Nc1nc(-c2ccc(C(=O)O)c(O)c2)cnc1N)c1ccccc1`, for which, in series [2], the IC50 turned out to be 10 µM.
Regarding `C[C@@H](Nc1nc(-c2cccc(C(N)=O)c2)cnc1N)c1ccccc1`, the dissociation constant Kd in [1] is greater than 100 µM. Also, the half-maximal inhibitory concentration (IC50) in series [2] was greater than 100 µM.
Consider `Cc1cc(C(=O)O)cc(-c2cnc(N)c(N[C@H](C)c3ccccc3)n2)c1`, for which the Kd in series [1] worked out at 7 µM. Moreover, the IC50 in series [2] turned out to be 4 µM; in [3], 7 µM.
`C[C@@H](Nc1nc(-c2cccc(C(=O)O)c2)cnc1N)C1CCCCC1`: the equilibrium dissociation constant (Kd) in series [1] is 7 µM. For the same compound, the IC50 in [2] amounted to 3 µM.
The like results for `C[C@H](c1ccccc1)N(C)c1nc(-c2cccc(C(=O)O)c2)cnc1N` were, in that order, greater than 100 µM and greater than 100 µM.
Take `C[C@@H](Oc1nc(-c2cccc(C(=O)O)c2)cnc1N)c1ccccc1`: the Kd in series [1] was greater than 100 µM. In addition, the IC50 in [2] and in series [3] was greater than 100 µM in each case.
For the compound `CNc1ncc(-c2cccc(C(=O)O)c2)nc1N[C@H](C)c1ccccc1`, the equilibrium dissociation constant (Kd) in [1] is greater than 100 µM. The IC50 in series [2] was 73 µM; in series [3], greater than 100 µM.
For the compound `C[C@H](Nc1nc(-c2cccc(C(=O)O)c2)cnc1N)c1ccccc1`, in series [1], the Kd was greater than 100 µM. Besides, the concentration for half-maximal inhibition (IC50) in [2] was greater than 100 µM.
With `C[C@@H](Nc1nc(-c2cccc(C(=O)O)c2)cnc1N)c1ccccc1`, the figures for the Kd in [1] and in [4] were 7 µM and 857 µM, respectively. Further, the Papp B→A in series [5] was determined as 4 ×10⁻⁶ cm/s. The “inhibition (INH)” value against Cytochrome P450 2C9, against Cytochrome P450 3A4, against Cytochrome P450 2C19, against Cytochrome P450 2D6 and on Cytochrome P450 1A2 was “Not Active” each time. Besides, the IC50 in series [2] came to 4 µM. For the same compound, the fraction unbound at 4 h, 5 µM in [6] is 0.01; in [8], 0.04. In series [7], the solubility kinetic is 137 µM (≈ 45.8 µg/mL). In [9], the Papp A→B came to 9.6 ×10⁻⁶ cm/s.
With `C[C@@H](Nc1nc(-c2cccc(C(=O)O)c2)ccc1N)c1ccccc1`, the Kd in [1] was greater than 100 µM. The IC50 in series [2] is greater than 100 µM.
With `Cc1ccc(C(=O)O)cc1-c1cnc(N)c(N[C@H](C)c2ccc(Cl)cc2)n1`, in series [5], the Papp B→A was 10.3 ×10⁻⁶ cm/s. Further, the “inhibition (INH)” value against Cytochrome P450 2C9, against Cytochrome P450 3A4, at Cytochrome P450 2C19, at Cytochrome P450 2D6 and at Cytochrome P450 1A2 was “Not Active” throughout. Also, the Vd in series [10] turned out to be 1.4 L/kg. The same compound returned a clearance in [11] of 60 mL/min/kg. For the same compound, the Cmax in [12] is 2100 nM. The half-life in series [13] is 2.8 h. In addition, the IC50 in [2] stood at 0.5 µM. In addition, the values for the fraction unbound at 4 h, 5 µM in series [6] and in series [8] were less than 0.01 and 0.01, respectively. Besides, the solubility kinetic in [7] is 81 µM (≈ 31 µg/mL). Moreover, the Papp A→B in [9] stood at 12.1 ×10⁻⁶ cm/s. The bioavailability in series [14] is 41%. For the same compound, the AUC(0-inf) in [15] worked out at 0.55 µM·h. The Activity result in series [16] is on record as “Non-toxic”.
Consider `C[C@@H](Nc1nc(-c2csc(C(=O)O)c2)cnc1N)c1ccccc1`, for which, in [1], the Kd was found to be 33 µM. Besides, the IC50 in series [2] was 50 µM; in series [3] it was greater than 100 µM.
Turning to `C[C@@H](Nc1nc(-c2ccnc(C(=O)O)c2)cnc1N)c1ccccc1`, the Kd in series [1] was 32 µM. Also, the IC50 in series [2] came to 24 µM.
With `C[C@@H](Nc1cncc(-c2cccc(C(=O)O)c2)n1)c1ccccc1`, in series [1], the Kd was greater than 100 µM. In addition, the IC50 in series [2] amounted to 25 µM.
Take `C[C@@H](Nc1nc(-c2ccc(C(=O)O)cc2)cnc1N)c1ccccc1`: the IC50 in [2] was determined as 14 µM.
With `COc1ccc(C(=O)O)cc1-c1cnc(N)c(N[C@H](C)c2ccccc2)n1`, the Kd in series [1] turned out to be 3 µM. Moreover, the IC50 in series [2] is 2 µM; in series [3], 7 µM.
As to `COCCNc1nc(-c2cccc(C(=O)O)c2)cnc1N`, in [1], the Kd is greater than 100 µM. Further, the concentration for half-maximal inhibition (IC50) in series [2] is greater than 100 µM.
As to `CC(C)c1ccc(C(=O)O)cc1-c1cnc(N)c(N[C@H](C)c2ccccc2)n1`, the Kd in series [1] came to 5 µM. Moreover, the IC50 in series [2] is 2 µM; in series [3], 7 µM.
Take `C[C@@H](Nc1nc(-c2cccc(C(=O)O)c2)cnc1O)c1ccccc1`: the Kd in [1] was greater than 100 µM. The IC50 in series [2] and in [3] was greater than 100 µM each time.
As to `C[C@@H](Nc1nc(-c2ccccc2C(=O)O)cnc1N)c1ccccc1`, in series [1], the equilibrium dissociation constant (Kd) was greater than 100 µM. In addition, the IC50 in series [2] and in series [3] was greater than 100 µM each time.
Consider `Cc1ccc(-c2cnc(N)c(N[C@H](C)c3ccccc3)n2)cc1C(=O)O`, for which the Kd in series [1] came to 29 µM. In addition, the IC50 in series [2] is 15 µM.
Regarding `Cc1nc(N)c(N[C@H](C)c2ccccc2)nc1-c1cccc(C(=O)O)c1`, in series [1], the Kd was greater than 100 µM. Also, the IC50 in series [2] was 91 µM; in series [3] it was greater than 100 µM.
As for `C[C@@H](Nc1nc(-c2cccc(C(=O)O)c2)cnc1NS(C)(=O)=O)c1ccccc1`, the IC50 in series [2] was 71 µM; in series [3], greater than 100 µM.
For `Cc1c(C(=O)O)cccc1-c1cnc(N)c(N[C@H](C)c2ccccc2)n1`, the Kd in series [1] is greater than 100 µM. Besides, the IC50 in [2] turned out to be 35 µM.
On to `CC(=O)Nc1ncc(-c2cccc(C(=O)O)c2)nc1N[C@H](C)c1ccccc1`, for which the IC50 in [2] and in [3] was greater than 100 µM throughout.
Turning to `C[C@@H](Nc1cc(-c2cccc(C(=O)O)c2)cnc1N)c1ccccc1`, the Kd in series [1] was 29 µM. In series [2], the IC50 stood at 18 µM.
The like results for `CCOC(=O)c1cccc(-c2cnc(N)c(N[C@H](C)c3ccccc3)n2)c1` were, in that order, greater than 100 µM and greater than 100 µM.
Consider `C[C@@H](Nc1nc(-c2cc(C(=O)O)ccc2Cl)cnc1N)c1ccccc1`, for which, in series [1], the Kd came to 5 µM. Also, the values for the IC50 in series [2] and in [3] were 2 µM and 8 µM, respectively.
For `C[C@@H](Nc1nc(-n2cc(C(=O)O)cn2)cnc1N)c1ccccc1`, the IC50 in [2] and in series [3] was 15 µM in each case.
`Cc1ccc(C(=O)O)cc1-c1cnc(N)c(N[C@H](C)c2ccccc2)n1`: the Kd in [1] was 3 µM. Also, the IC50 was determined as 2 µM in series [2] and 6 µM in series [3].
In the case of `Nc1ncc(-c2cccc(C(=O)O)c2)nc1NCc1ccccc1`, the Kd in series [1] was found to be 22 µM. Moreover, in series [2], the IC50 was found to be 12 µM.
The like results for `Nc1ncc(-c2cccc(C(=O)O)c2)nc1NCC1CCCC1` were, in that order, 18 µM and 19 µM.

Usually Kd stands for the equilibrium constant for the complex coming apart. The IC50 is the midpoint of a concentration-inhibition curve. The Cmax is the maximum level reached in the sampled fluid or tissue. What is called half-life is the time needed for the level to fall by half in the phase considered. High values mean slow decline, low ones rapid decline. One may read the bioavailability as dose-corrected exposure relative to a reference, in per cent. What is called AUC(0-inf) is total exposure, with the tail of the curve extrapolated.
